Results taken from patent US11419333B2, “Compositions and methods for biofilm removal” (ChampionX USA Inc., priority 2018, dated 2022).

Test system: Pseudomonas aeruginosa
Assay: Biocide test of quats in combination with THPS (ACCUCOUNT ATP)
Format: cell-based
Conditions: 400 ppm (active) quat with addition of 8% THPS, compared to untreated sample
Experimental: The ability of POLY SUGA quats to act as biocides was tested. […] Each quat was compared to an untreated sample as well as a sample treated with a nonpolymeric cationic quat used as a positive control. Each test contained Pseudomonas aeruginosa, grown to a final density of 1×E8 per mL of cells in 3% sodium chloride containing growth medium. 400 ppm (active) of each quat was added to the mix and incubated for 4 and 24 hrs. After this time, 10 ml aliquots of each sample were drawn for analysis.
Active microbial populations were estimated using the ACCUCOUNT method. ACCUCOUNT uses ATP concentrations measured using fluorescence to indirectly quantitate the number of active microbes in a given sample. It is assumed that each cell contains 1 fg of ATP. By correlating the detected fluorescence to a known concentration of standard-the number of bacterial cells/mL is estimated.
The ability of each quat to act together with a known biocide to reduce microbial populations was tested. […] THPS alone and a non-polymeric cationic quat+THPS were used as positive controls.

tetrakis(hydroxymethyl)phosphonium sulfate [THPS]
% reduction in bacteria (4 Hrs.): 89.75% | % reduction in bacteria (24 Hrs.): 91.73%
